Experimental data from US20250228239A1, “MOLECULES HAVING PESTICIDAL UTILITY, AND INTERMEDIATES, COMPOSITIONS, AND PROCESSES, RELATED THERETO” (priority 2024, published 2025).
Where two headings read alike, the source gives them in different places.

Columns and labels:
Assay type in all cases: in vivo
[1] = tested on: Yellow Fever Mosquito (Aedes aegypti, AEDSAE); details: for YFM rating: Table ABC / ABC-DP rating; for YFM % Control (or Mortality) rating: about 1 day-old larvae, 4000 ppm master solution diluted with 90:10 water/acetone, 15 μL per well plus 220 μL larval mixture, 3 days
In short: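 Larvae ~1 day old, in liver powder/water; compound from 4000 ppm DMSO stock diluted with water/acetone (90:10); 6 reps; lidded, RT, 3 d; mortality scored per well, rated.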

[2] = tested on: Beet Armyworm (Spodoptera exigua, LAPHEG); experiment: Bioassays on Beet Armyworm (BAW), 128-well diet tray assay; details: Spodoptera exigua; for mortality at 50 µg/cm2: 168 h, second instar larvae, 50 μg/cm^2 of test molecule on artificial diet, 25° C., five to seven days, average of eight wells, read-out: BAW % Control (or Mortality) rating
In short: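 Eight diet wells per compound were treated at 50 μg/cm^2 (acetone-water 90:10), dried, then infested with 1–5 second-instar larvae each. After five to seven days at 25 °C under 14:10 photoperiod, mortality was scored and averaged across wells.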

[3] = tested on: Cabbage Looper (Trichoplusia ni, TRIPNI); experiment: Bioassays on Cabbage Looper (CL), 128-well diet tray assay; details: Trichoplusia ni; for mortality at 50 µg/cm2: 168 h, second instar larvae, 50 μg/cm^2 of test molecule on artificial diet, 25° C., five to seven days, average of eight wells, read-out: CL % Control (or Mortality) rating
In short: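 Percent mortality, averaged across eight replicate wells, after second-instar larvae (1–5 per well) fed for five to seven days on diet dosed at 50 μg/cm^2. Compound was applied in acetone-water 90:10 and dried; trays kept vented at 25° C under 14:10 photoperiod.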

[4] = Table ABC: Biological Results, species YFM
[5] = Table ABC: Biological Results, species BAW, read-out: BAW
[6] = Table ABC: Biological Results, species CL, read-out: CL
[7] = Yellow Fever Mosquito, rating class
[8] = Beet Armyworm, rating class, read-out: BAW
[9] = Cabbage Looper, rating class, read-out: CL
[10] = Beet Armyworm, Table ABC / ABC-DP rating, read-out: BAW rating
[11] = Cabbage Looper, Table ABC / ABC-DP rating, read-out: CL rating

Row | Compound | YFM [1, 4] | pest or weed control at 50 µg/cm2 [2, 5] | pest or weed control at 50 µg/cm2 [3, 6] | YFM rating ([1]; Yellow Fever Mosquito) | pest or weed control at 50 µg/cm2 [2, 10] | pest or weed control at 50 µg/cm2 [3, 11] | further results
1 | O=C(Nc1ccc(F)cc1F)c1cc(NC(=O)[C@H]2[C@H](c3cc(Cl)c(F)c(Cl)c3)C2(Cl)Cl)ccc1Cl (relative stereo) [F1172, trans-2-Chloro-5-(2,2-dichloro-3-(3,5-dichloro-4-fluorophenyl)cyclopropane-1-carboxamido)-N-(2,4-difluorophenyl)benzamide] | A (80–100) | 50 to 100% | 50 to 100% |  |  |  | 
2 | COc1c(F)cc(NC(=O)[C@H]2[C@H](c3ccc(F)c(Cl)c3)C2(Cl)Cl)cc1C(=O)Nc1ccc(F)cc1F (relative stereo) [F1219, trans-5-(2,2-Dichloro-3-(3-chloro-4-fluorophenyl)cyclopropane-1-carboxamido)-N-(2,4-difluorophenyl)-3-fluoro-2-methoxybenzamide] | A (80–100) | 50 to 100% | 50 to 100% |  |  |  | 
3 | Cc1c(NC(=O)c2cc(NC(=O)[C@H]3[C@H](c4ccc(F)c(C(F)(F)F)c4)C3(Cl)Cl)ccc2Cl)ccc(Br)c1N [F1690, N-(3-Amino-4-bromo-2-methylphenyl)-2-chloro-5-((1R,3R)-2,2-dichloro-3-(4-fluoro-3-(trifluoromethyl)phenyl)cyclopropane-1-carboxamido)benzamide] |  |  |  |  |  |  | YFM [1, 7]: A (80–100); pest or weed control at 50 µg/cm2 [2, 8]: 50 to 100%; pest or weed control at 50 µg/cm2 [3, 9]: 50 to 100%
4 | CC1(C(=O)Nc2c(F)ccc(NC(=O)c3cc(NC(=O)[C@H]4[C@H](c5ccc(F)c(C(F)(F)F)c5)C4(Cl)Cl)ccc3Cl)c2F)CCCO1 (stereo partly drawn) [F1809, N-(3-(2-Chloro-5-((1R,3R)-2,2-dichloro-3-(4-fluoro-3-(trifluoromethyl)phenyl)cyclopropane-1-carboxamido)benzamido)-2,6-difluorophenyl)-2-methyltetrahydrofuran-2-carboxamide] |  |  |  | A (80–100) | 50 to 100% | 50 to 100% | 
5 | Nc1c(F)ccc(NC(=O)c2cc(NC(=O)[C@H]3[C@H](c4cc(Br)cc(S(F)(F)(F)(F)F)c4)C3(Cl)Cl)ccc2Cl)c1F (relative stereo) [F1042, trans-N-(3-Amino-2,4-difluorophenyl)-5-(3-(3-bromo-5-(pentafluoro-λ^6-sulfanyl)phenyl)-2,2-dichlorocyclopropane-1-carboxamido)-2-chlorobenzamide] | A (80–100) | 50 to 100% | 50 to 100% |  |  |  | 
6 | COc1ccc(NNC(=O)c2cc(NC(=O)[C@H]3[C@H](c4cc(Cl)cc(Cl)c4)C3(Cl)Cl)ccc2Cl)cc1 (relative stereo) [F2563, trans-2,2-Dichloro-N-(4-chloro-3-(2-(4-methoxyphenyl)hydrazine-1-carbonyl)phenyl)-3-(3,5-dichlorophenyl)cyclopropane-1-carboxamide] |  |  |  | B (More than 0 – Less than 80) | 50 to 100% | 50 to 100% | YFM % Control (or Mortality) rating [1]: B (More than 0 – Less than 80); mortality at 50 µg/cm2 [2]: 50 to 100%; mortality at 50 µg/cm2 [3]: 50 to 100%
7 | C=Cc1ccc(NC(=O)c2cc(NC(=O)[C@H]3[C@H](c4cc(Cl)cc(Cl)c4)C3(Cl)Cl)ccc2Cl)c(F)c1 (relative stereo) [F1313, trans-2-Chloro-5-(2,2-dichloro-3-(3,5-dichlorophenyl)cyclopropane-1-carboxamido)-N-(2-fluoro-4-vinylphenyl)benzamide] | A (80–100) | 50 to 100% | 50 to 100% |  |  |  | 
8 | Cc1cc(NC(=O)[C@H]2[C@H](c3ccc(F)c(Cl)c3)C2(Cl)Cl)cc(C(=O)Nc2ccc(F)cc2)c1F (relative stereo) [F1136, trans-5-(2,2-Dichloro-3-(3-chloro-4-fluorophenyl)cyclopropane-1-carboxamido)-2-fluoro-N-(4-fluorophenyl)-3-methylbenzamide] | A (80–100) | 50 to 100% | 50 to 100% |  |  |  | 
9 | O=C(NCC(F)(F)C(F)(F)F)c1c(Cl)ccc(NC(=O)[C@H]2[C@H](c3ccc(F)c(Cl)c3)C2(Cl)Cl)c1Cl (relative stereo) [F2005, trans-2,6-Dichloro-3-(2,2-dichloro-3-(3-chloro-4-fluorophenyl)cyclopropane-1-carboxamido)-N-(2,2,3,3,3-pentafluoropropyl)benzamide] |  |  |  | A (80–100) | 50 to 100% | 50 to 100% | 
10 | CCN(C(=O)OC(C)(C)C)c1c(F)ccc(NC(=O)c2cc(NC(=O)[C@H]3[C@H](c4ccc(F)c(C(F)(F)F)c4)C3(Cl)Cl)ccc2Cl)c1F [F1761, tert-Butyl (3-(2-chloro-5-((1R,3R)-2,2-dichloro-3-(4-fluoro-3-(trifluoromethyl)phenyl)cyclopropane-1-carboxamido)benzamido)-2,6-difluorophenyl)(ethyl)carbamate] |  |  |  |  |  |  | YFM [1, 7]: A (80–100); pest or weed control at 50 µg/cm2 [2, 8]: 50 to 100%; pest or weed control at 50 µg/cm2 [3, 9]: 50 to 100%
11 | Cc1cc(NCc2ccccc2)ccc1NC(=O)c1cc(NC(=O)[C@H]2[C@H](c3cc(Cl)cc(Cl)c3)C2(Cl)Cl)ccc1Cl (relative stereo) [F1176, trans-N-(4-(Benzylamino)-2-methylphenyl)-2-chloro-5-(2,2-dichloro-3-(3,5-dichlorophenyl)cyclopropane-1-carboxamido)benzamide] | A (80–100) | 50 to 100% | 50 to 100% |  |  |  | 
12 | O=C(NN=Cc1ccccc1)c1cc(NC(=O)C2C(c3cc(Cl)cc(Cl)c3)C2(Cl)Cl)ccc1Cl (stereo not drawn) [F3001, trans-N-(3-(2-Benzylidenehydrazine-1-carbonyl)-4-chiorophenyl)-2,2-dichloro-3-(3,5-dichlorophenyl)cyclopropane-1-carboxamide] |  |  |  | A (80–100) | 50 to 100% | 50 to 100% | YFM % Control (or Mortality) rating [1]: A (80–100); mortality at 50 µg/cm2 [2]: 50 to 100%; mortality at 50 µg/cm2 [3]: 50 to 100%
13 | Nc1c(F)ccc(NC(=O)c2cc(NC(=O)[C@H]3[C@@H](c4cc(Cl)c(Cl)c(C(F)(F)F)c4)C3(Cl)Cl)ccc2Cl)c1F (relative stereo) [F1150, cis-N-(3-Amino-2,4-difluorophenyl)-2-chloro-5-(2,2-dichloro-3-(3,4-dichloro-5-(trifluoromethyl)phenyl)cyclopropane-1-carboxamido)benzamide] | A (80–100) | 50 to 100% | 50 to 100% |  |  |  | 
14 | O=C(CCCC(F)(F)F)Nc1c(F)ccc(NC(=O)c2cc(NC(=O)[C@H]3[C@H](c4ccc(F)c(C(F)(F)F)c4)C3(Cl)Cl)ccc2Cl)c1F [F1830, 2-Chloro-5-((1R,3R)-2,2-dichloro-3-(4-fluoro-3-(trifluoromethyl)phenyl)cyclopropane-1-carboxamido)-N-(2,4-difluoro-3-(5,5,5-trifluoropentanamido)phenyl)benzamide] |  |  |  | A (80–100) | 50 to 100% | 50 to 100% | 
15 | Nc1c(F)ccc(NC(=O)c2cc(NC(=O)[C@H]3[C@@H](c4cc(F)c(Cl)c(Cl)c4)C3(Cl)Cl)ccc2Cl)c1F (relative stereo) [F1047, cis-N-(3-Amino-2,4-difluorophenyl)-2-chloro-5-(2,2-dichloro-3-(3,4-dichloro-5-fluorophenyl)cyclopropane-1-carboxamido)benzamide] | A (80–100) | 50 to 100% | 50 to 100% |  |  |  | 
16 | CC1(C)C(=O)CC1C(=O)Nc1c(F)ccc(NC(=O)c2cc(NC(=O)[C@H]3[C@H](c4ccc(F)c(C(F)(F)F)c4)C3(Cl)Cl)ccc2Cl)c1F (stereo partly drawn) [F1507, 2-Chloro-5-((1R,3R)-2,2-dichloro-3-(4-fluoro-3-(trifluoromethyl)phenyl)cyclopropane-1-carboxamido)-N-(3-(2,2-dimethyl-3-oxocyclobutane-1-carboxamido)-2,4-difluorophenyl)benzamide] |  |  |  |  |  |  | YFM [1, 7]: A (80–100); pest or weed control at 50 µg/cm2 [2, 8]: 50 to 100%; pest or weed control at 50 µg/cm2 [3, 9]: 50 to 100%
17 | Nc1c(F)ccc(NC(=O)c2cc(NC(=O)[C@H]3[C@H](c4ccc(F)c(C(F)(F)F)c4)C3(Cl)Cl)ccc2Cl)c1F [DP9, N-(3-amino-2,4-difluorophenyl)-2-chloro-5-((1R,3R)-2,2-dichloro-3-(4-fluoro-3-(trifluoromethyl)phenyl)cyclopropane-1-carboxamido)benzamide] |  |  |  | A (80–100) | 50 to 100% | 50 to 100% | YFM % Control (or Mortality) rating [1]: A (80–100); mortality at 50 µg/cm2 [2]: 50 to 100%; mortality at 50 µg/cm2 [3]: 50 to 100%
18 | O=C(Nc1c(F)ccc(NC(=O)c2cc(NC(=O)[C@H]3[C@H](c4ccc(Cl)c(Cl)c4)C3(Cl)Cl)ccc2Cl)c1F)c1ccco1 [F1416, N-(3-(2-Chloro-5-((1R,3R)-2,2-dichloro-3-(3,4-dichlorophenyl)cyclopropane-1-carboxamido)benzamido)-2,6-difluorophenyl)furan-2-carboxamide] |  |  |  |  |  |  | YFM [1, 7]: A (80–100); pest or weed control at 50 µg/cm2 [2, 8]: 50 to 100%; pest or weed control at 50 µg/cm2 [3, 9]: 50 to 100%
